Data published in paper PMC5078989, “Targeted inhibition of the COP9 signalosome for treatment of cancer” (Nature Communications, 2016).

Tested on: panel of cancer cell lines
Experiment: Cell viability (CellTiter-Glo) dose-response across cancer cell line panel;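 note: after 72 h compound incubation with CellTiter-Glo ATP readout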
Assay type: cell-based, human
Conditions: Homo sapiens
Source text: Next, we explored the effect of CSN5 inhibition on the viability of cancer cells. To obtain a comprehensive picture, we generated dose–response curves with a CSN5 inhibitor across more than 500 cancer cell lines in a previously described standardized setting[47] (Supplementary Data 1).
A standardized CellTiter-Glo Assay (Promega #G7570) based on the quantification of ATP was applied according to the manufacturer's protocol to measure the amount of viable cells in culture. In brief, cells were seeded into 384-well plates at optimal density for each cell line. After 4 h, compounds were added at different concentrations in growth medium and incubated for another 72 h in a humidifying chamber at 37 °C and 5% CO2. […] EC50 values were calculated from the plot of percentage of inhibition versus inhibitor concentration using the nonlinear regression analysis software Origin 7.5SR6 (OriginLab Corp.).

SMILES: CC(C)C[C@H](NC(=O)[C@H](Cc1ccccc1)NC(=O)c1cnccn1)B(O)O [Bortezomib]
- EC50 (HCC1500, HCC1500): 5.16 nM
- EC50 (HCC1569, HCC1569): 6.77 nM
- EC50 (HCC1806, HCC1806): 24.8 nM
- EC50 (HCC1937, HCC1937): 7.46 nM
- EC50 (HCC1954, HCC1954): 3.14 nM
- EC50 (HCC2218, HCC2218): 9.79 nM
- EC50 (HCT-15, HCT-15): 26.6 nM
- EC50 (HCT-116, HCT 116): 6.91 nM
- EC50 (HEC-1-A, cell line HEC-1-A): 15.5 nM
- EC50 (HEC-6, HEC-6): 21.4 nM
- EC50 (HEC-50B): 25.2 nM
- EC50 (HEC-59): 7.32 nM
- EC50 (HEC-151): 21.6 nM
- EC50 (HEC-251, HEC-251): 9.46 nM
- EC50 (HEC-265): 17 nM
- EC50 (HEL 92.1.7, HEL 92.1.7): 5.21 nM
- EC50 (HEY A8, Hey-A8): 56.7 nM
- EC50 (HGC-27, HGC-27): 16.2 nM
- EC50 (HLC-1): 11.1 nM
- EC50 (HLF): 13.8 nM
- EC50 (HMC-1-8): 7.01 nM
- EC50 (HMCB): 9.61 nM
- EC50 (HPBALL, HPB-ALL): 3.18 nM
- EC50 (HRT-18, HRT-18): 53.1 nM
- EC50 (HT): 1.72 nM
- EC50 (HT55, HT55): 31 nM
- EC50 (HT115, HT115): 8.52 nM
- EC50 (HT-29, HT-29): 18.4 nM
- EC50 (HT-144, HT-144): 8.93 nM
- EC50 (HT-1080, HT-1080): 20.1 nM
- EC50 (HT-1376, HT-1376): 18.1 nM
- EC50 (HTK-): 17.1 nM
- EC50 (Hs 294T): 11.4 nM
- EC50 (Hs 571.T): 10.2 nM
- EC50 (Hs 611.T): 6.13 nM
- EC50 (Hs 695T): 3.73 nM
- EC50 (Hs 729): 7.87 nM
- EC50 (Hs766T, Hs 766T): 19.8 nM
- EC50 (Hs 936.T): 8.25 nM
- EC50 (Hs 939.T): 4.42 nM
- EC50 (Hs 940.T): 3.97 nM
- EC50 (Hs 944.T): 12.7 nM
- EC50 (Hs-578T, Hs 578T): 10.3 nM
- EC50 (HuH-1, cell line huH-1): 44.7 nM
- EC50 (HuP-T3, HUP-T3): 7.39 nM
- EC50 (IGR-1, IGR-1): 8.66 nM
- EC50 (IGR-37, IGR-37): 8.3 nM
- EC50 (IGR-39, IGR-39): 7.6 nM
- EC50 (IGROV-1, IGROV1): 26.8 nM
- EC50 (IMR-32, IMR-32): 5.94 nM
- EC50 (IPC-298, cell line IPC-298): 9.44 nM
- EC50 (Ishikawa, Ishikawa (Heraklio) 02 ER-): 16.1 nM
- EC50 (J82, J82): 11.9 nM
- EC50 (JHH7, cell line JHH-7): 10.2 nM
- EC50 (JHH-2, cell line JHH-2): 18.3 nM
- EC50 (JHOM-1): 4.86 nM
- EC50 (JHUEM-2): 5.6 nM
- EC50 (JIMT-1, JIMT-1): 13.9 nM
- EC50 (JJN-3, JJN-3): 2.61 nM
- EC50 (JVM-2, JVM-2): 4.69 nM
- EC50 (JVM-3, JVM-3): 8.69 nM
- EC50 (JeKo-1, JeKo-1): 7.3 nM
- EC50 (Jurkat): 9.14 nM
- EC50 (K029AX): 4.76 nM
- EC50 (K562, K-562): 16.3 nM
- EC50 (KARPAS-299, KARPAS-299): 5.88 nM
- EC50 (KARPAS-422, KARPAS-422): 6.19 nM
- EC50 (KASUMI-2): 3.8 nM
- EC50 (KATO III, cell line KATO III): 7.88 nM
- EC50 (KCL-22, KCL-22): 4.19 nM
- EC50 (KHM-1B): 4.04 nM
- EC50 (KLE): 12.8 nM
- EC50 (KM12, KM12): 23.9 nM
- EC50 (KMM-1, KMM-1): 4.45 nM
- EC50 (KMRC-1, KMRC-1): 6.75 nM
- EC50 (KMRC-20): 10.1 nM
- EC50 (KMS-11, KMS-11): 3.19 nM
- EC50 (KMS-12-BM): 5.34 nM
- EC50 (KMS-26, KMS-26): 11.5 nM
- EC50 (KMS-28BM): 3.85 nM
- EC50 (KMS-34, KMS-34): 12.2 nM
- EC50 (KNS-62, KNS-62): 19.3 nM
- EC50 (KO52): 2.37 nM
- EC50 (KP-1N): 7.49 nM
- EC50 (KP-1NL): 9.41 nM
- EC50 (KP-N-SI9s): 8.48 nM
- EC50 (KP-N-YN): 20.2 nM
- EC50 (KPL-1, KPL-1): 20.5 nM
- EC50 (KU812, KU812): 4 nM
- EC50 (KYM-1): 4.88 nM
- EC50 (KYO1, KYO-1): 6.59 nM
- EC50 (KYSE-30, KYSE-30): 7.82 nM
- EC50 (KYSE-70, cell line KYSE-70): 18 nM
- EC50 (KYSE-150, cell line KYSE-150): 6.63 nM
- EC50 (KYSE-270, cell line KYSE-270): 10.3 nM
- EC50 (KYSE-410, cell line KYSE-410): 21.2 nM
- EC50 (KYSE-450, KYSE-450): 16 nM
- EC50 (KYSE-510, cell line KYSE-510): 11.9 nM
- EC50 (KYSE-520, cell line KYSE-520): 13.4 nM
- EC50 (Karpas-620, KARPAS-620): 6.17 nM
- EC50 (Kelly): 3.53 nM
- EC50 (Ki-JK): 4.34 nM
- EC50 (L3.3): 29.6 nM
- EC50 (L-363, L-363): 5.51 nM
- EC50 (LAMA-84, LAMA-84): 5.36 nM
- EC50 (LCLC-97TM1, LCLC-97TM1): 8.39 nM
- EC50 (LCLC-103H): 10.1 nM
- EC50 (LK-2, LK-2): 11.7 nM
- EC50 (LMSU): 10.3 nM
- EC50 (LN-18, LN-18): 15.3 nM
- EC50 (LN-229, LN-229): 8.7 nM
- EC50 (LOX IMVI): 26.4 nM
- EC50 (LP-1, LP-1): 5.99 nM
- EC50 (LS180, LS 180): 16.4 nM
- EC50 (LS-411N, LS411N): 17.3 nM
- EC50 (LXF-289, LXF-289): 14.3 nM
- EC50 (Li-7, Li-7): 15.6 nM
- EC50 (LoVo): 13.4 nM
- EC50 (Loucy): 2.54 nM
- EC50 (Lu-65, LU65): 7.61 nM
- EC50 (Lu-99, LU99): 15.4 nM
- EC50 (MB 157): 6.39 nM
- EC50 (MC116, cell line MC116): 9.81 nM
- EC50 (MCAS): 8.1 nM
- EC50 (MCF7, MCF7): 38 nM
- EC50 (MDA-MB-175-VII): 10.3 nM
- EC50 (MDA-MB-231, MDA-MB-231): 10.9 nM
- EC50 (MDA-MB-415, MDA-MB-415): 16.1 nM
- EC50 (MDA-MB-436, MDA-MB-436): 12.6 nM
- EC50 (MDA-MB-453, MDA-MB-453): 6.73 nM
- EC50 (MDA-MB-468, MDA-MB-468): 5.97 nM
- EC50 (MDST8, MDST8): 8.17 nM
- EC50 (MEC1, MEC-1): 4.98 nM
- EC50 (MEG-01, MEG-01): 8.7 nM
- EC50 (MEL-JUSO): 10.6 nM
- EC50 (MFE-296, cell line MFE-296): 19.8 nM
- EC50 (MG-63, MG-63): 5.92 nM
- EC50 (MHH-NB-11): 10.4 nM
- EC50 (MIA PaCa-2, cell line MIA PaCa-2): 15.1 nM
- EC50 (MINO): 6.8 nM
- EC50 (MKN-1, cell line MKN1): 6.81 nM
- EC50 (MKN-7, cell line MKN7): 7.08 nM
- EC50 (MKN-45, cell line MKN-45): 8.03 nM
- EC50 (MKN-74, cell line MKN74): 8.77 nM
- EC50 (MM1.S, cell line MM1-S): 2 nM
- EC50 (MOLM16, MOLM-16): 1.95 nM
- EC50 (MOLM-13, MOLM-13): 5.21 nM
- EC50 (MOLP-8, MOLP-8): 7.29 nM
- EC50 (MOLT-16, MOLT-16): 1.73 nM
- EC50 (MONO-MAC-6, MONO-MAC-6): 10.9 nM
- EC50 (MOR/CPR): 39.6 nM
- EC50 (MSTO-211H, cell line MSTO-211H): 22 nM
- EC50 (MV4-11, cell line MV-4-11): 5.18 nM
- EC50 (Malme-3M): 3.27 nM
- EC50 (Maver1, cell line MAVER-1): 6.73 nM
- EC50 (MeWo, cell line MeWo): 8.08 nM
- EC50 (Mel202, cell line Mel202): 10.1 nM
- EC50 (Mono-Mac-1, MONO-MAC-1): 7.98 nM
